Experimental data as given in patent US7344884B2, “Peptides promoting cell adherence, growth and secretion” (Becton, Dickinson and Company, priority 2001, dated 2008).
Marks after values point to notes of the source that are not given here.

B1: Collagen-III: extracellular matrix (ECM) control from Becton Dickinson Labware (protein, UniProt P02461 154-1221, looked up)
Collagen alpha-1(III) chain: QYDSYDVKSGVAVGGLAGYPGPAGPPGPPGPPGTSGHPGSPGSPGYQGPPGEPGQAGPSGPPGPPGAIGPSGPAGKDGESGRPGRPGERGLPGPPGIKGPAGIPGFPGMKGHRGFDGRNGEKGETGAPGLKGENGLPGENGAPGPMGPRGAPGERGRPGLPGAAGARGNDGARGSDGQPGPPGPPGTAGFPGSPGAKGEVGPAGSPGSNGAPGQRGEPGPQGHAGAQGPPGPPGINGSPGGKGEMGPAGIPGAPGLMGARGPPGPAGANGAPGLRGGAGEPGKNGAKGEPGPRGERGEAGIPGVPGAKGEDGKDGSPGEPGANGLPGAAGERGAPGFRGPAGPNGIPGEKGPAGERGAPGPAGPRGAAGEPGRDGVPGGPGMRGMPGSPGGPGSDGKPGPPGSQGESGRPGPPGPSGPRGQPGVMGFPGPKGNDGAPGKNGERGGPGGPGPQGPPGKNGETGPQGPPGPTGPGGDKGDTGPPGPQGLQGLPGTGGPPGENGKPGEPGPKGDAGAPGAPGGKGDAGAPGERGPPGLAGAPGLRGGAGPPGPEGGKGAAGPPGPPGAAGTPGLQGMPGERGGLGSPGPKGDKGEPGGPGADGVPGKDGPRGPTGPIGPPGPAGQPGDKGEGGAPGLPGIAGPRGSPGERGETGPPGPAGFPGAPGQNGEPGGKGERGAPGEKGEGGPPGVAGPPGGSGPAGPPGPQGVKGERGSPGGPGAAGFPGARGLPGPPGSNGNPGPPGPSGSPGKDGPPGPAGNTGAPGSPGVSGPKGDAGQPGEKGSPGAQGPPGAPGPLGIAGITGARGLAGPPGMPGPRGSPGPQGVKGESGKPGANGLSGERGPPGPQGLPGLAGTAGEPGRDGNPGSDGLPGRDGSPGGKGDRGENGSPGAPGAPGHPGPPGPVGPAGKSGDRGESGPAGPAGAPGPAGSRGAPGPQGPRGDKGETGERGAAGIKGHRGFPGNPGAPGSPGPAGQQGAIGSPGPAGPRGPVGPSGPPGKDGTSGHPGPIGPPGPRGNRGERGSEGSPGHPGQPGPPGPPGAPGPCCGGVGAAAIAGIGGEKAGGFAPYYG

System: MC3T3 cells
Assay: Oxygen biosensor assay of adherence and growth of MC3T3 cells on peptide-coated wells
Assay type: cell-based, murine
Settings: for Abs at 590 nm (relative oxygen consumption), MDL-400 Library / relative oxygen consumption (Absorbance at 590 nm) / Abs at 590 nm (relative oxygen consumption), Controls: 86 hour time point; for Abs at 590 nm (relative oxygen consumption), MDL-400 Library: single peptide, 50 µl of 1 mM stock dried in well, value normalized to the well's initial reading; for impact on MC3T3 growth (result in words): peptide or control adsorbed to surface, compared with uncoated surface or controls; for Abs at 590 nm (relative oxygen consumption), Controls: 25 µl stock of ECM or known peptide control dried in well, same plate
Protocol: To identify peptides in a particular library which positively affected cell growth in cell culture, the library was screened in a growth assay. The selected cells were anchorage-dependent MC3T3 cells, which were grown on tissue culture surfaces which had been pre-coated with peptides of the present invention. The screening medium used to evaluate peptides in the library was a low serum medium allowing evaluation of peptide effects with low interference from undefined materials present in the medium. In the present work, growth of MC3T3 cells was assessed in the presence and absence of the peptides in the library which were present in the form of a dried film on a tissue culture substrate. Growth was evaluated in a basal medium rich in amino acids and containing the necessary vitamins, metals and simple carbon source. After an appropriate incubation time, growth of each peptide-supplemented culture is compared to growth of the unsupplemented culture. The extent of growth was evaluated using a Becton Dickinson oxygen sensor to detect oxygen consumption by the cells. The cell number in each well containing a particular peptide was then assessed indirectly with a flurometer which measured fluorescence generated from a fluoroescent dye using band-pass filters of 465 nm for excitation and 590 nm for emission.
Briefly, the oxygen biosensor is based upon the fluoroscence of ruthenium dye which is quenched in the presence of oxygen. The dye is immobilized within an inert but highly permeable silicone matrix located at the bottom of microtiter wells. […] (Wodnicka, M., Guarino, R. D., Hemperly, J. J. Temmins, M. R., Stitt, D. and Pitner, J. B. (2000) J. of Biomolecular Screening 5:141-152)
MC3T3-E1 is a clonal line of murine calvaria-derived osteoblast (establishement of a clonal osteogenic Cell Line from Newborn Mouse Calvaria in Jpn J. Oral Biol 23, 899 (1981)).
MC3T3 cells were maintained in αMEM (GIBCO Catalog No: 12561) supplemented with 2% fetal calf serum (FCS, inactivated) and 100 units or μg/ml of penicillin/streptomycin for one month prior to use. Cells were routinely seeded at a density of approximately 1×10^4 cells per 20 ml culture media which was placed in a 250 ml canted neck polystyrene tissue culture treated flask (Becton Dickinson). Cells were cultured until approximately 2×10^6 cells were obtainable from each flask, which were resuspended in 5 ml of αMEM with 2% FCS for a final cell concentration of about 5×10^4 cells per 150 μl for peptide screening.
For determining the biological effects of library peptides and appropriate controls on MC3T3 cells, cells (5×10^4/150 μl) were grown in an 96 well oxygen sensor plate treated as described below:
Peptides for screening were obtained from either a MDL-400 library or an MDL-100 library. Fifty microliters of peptides at a 1 mM stock concentration in phosphate buffered saline were placed in wells of a 96 well oxygen sensor plate and dried in a reverse flow air hood overnight […].
Vitrogen-collagen-I was obtained from Cohesion (Palo Alto, Calif., Catalog No. FXP-019) and fibronectin was obtained from Sigma (Catalog No. F-0895). All other extracellular matrix (ECM) compounds were obtained from Becton Dickinson Labware, (Bedford, Mass.). Polylysine was obtained from Becton Dickinson Labware and RGDSP-rhodamine was from AnaSpec Inc. (San Jose, Calif.). Extracellular matrix components (ECM) or known peptides were used at the following stock concentrations:
Twenty-five microliters of stock concentrations of controls and 25 μl of phosphate buffered saline were placed in wells of a 96 well oxygen sensor plate and dried overnight as described above.
Cells grown on 96 well oxygen sensor plates treated as described above were monitored for growth using a Becton Dickinson oxygen biosensor. Growth was monitored at the following time points: 1 hours, 24 hours, 32 hours, 48 hours and 86 hours. Media was changed every three days. […]

Molecule | Abs at 590 nm (relative oxygen consumption), MDL-400 Library | impact on MC3T3 growth (result in words) | Abs at 590 nm (relative oxygen consumption), Controls | further results
AFFKI (Synthetic peptide selected for biological activity) [SEQ ID NO:6] | 2.01* | significant difference in growth |  | 
AFKIF (Synthetic peptide selected for biological activity) [SEQ ID NO:9] | 2.78* | significant difference in growth |  | relative oxygen consumption (Absorbance at 590 nm): 2.78
AKIFF (Synthetic peptide selected for biological activity) [SEQ ID NO:8] | 2.08* | significant difference in growth |  | 
Collagen-IV: extracellular matrix (ECM) control from Becton Dickinson Labware [reference compound] |  |  | 3.14 | relative oxygen consumption (Absorbance at 590 nm): 3.14
Collagen-V: extracellular matrix (ECM) control from Becton Dickinson Labware [reference compound] |  |  | 1.76 | 
FAKFI (Synthetic peptide selected for biological activity) [SEQ ID NO:11] | 2.06* | significant difference in growth |  | 
FIFAK (Synthetic peptide selected for biological activity) [SEQ ID NO:3] | 2.08* | significant difference in growth |  | 
FIKFG (Synthetic peptide selected for biological activity) [SEQ ID NO:2] | 2.38* | significant difference in growth |  | impact on MC3T3 growth (result in words) (listed as FIKFG): positive
Fibronectin [reference compound] |  |  | 2.12 | 
IFFKG (Synthetic peptide selected for biological activity) [SEQ ID NO:1] | 2.53* | significant difference in growth |  | relative oxygen consumption (Absorbance at 590 nm): 2.53; impact on MC3T3 growth (result in words) (listed as IFFKG): positive
KFAFI (Synthetic peptide selected for biological activity) [SEQ ID NO:10] | 2.11* | significant difference in growth |  | 
Laminin [reference compound] |  |  | 2.65 | relative oxygen consumption (Absorbance at 590 nm): 2.65
Polylysine [reference compound] |  |  | 1.08 | 
QVVAK (Synthetic peptide selected for biological activity) [SEQ ID NO:4] | 2.11* | significant difference in growth |  | 
RGDSP-rhodamine [reference compound] |  |  | 1.25 | 
VFPFK (Synthetic peptide selected for biological activity) [SEQ ID NO:7] | 2.06* | significant difference in growth |  | 
B1 |  |  | 1.45 | 
